Where two headings read alike, the source gives them in different places. Residues, ends and D or L forms follow the SMILES beside them. *: point of attachment. Cbz = O=C(OCc1ccccc1)*; CH2F = FC*
Columns and labels:
[1] = human; for CLhep / Eh / Peak area ratio, parent: 1 μM
in vitro [2] = conditions: both, human, plasma
[3] = rat; for CLhep / Eh: 1 μM; for Peak area ratio, parent: 1 µM
in vitro [4] = conditions: human
[5] = test system: BK virus (BKV), Gardner strain; test: microbe, parasite or virus in culture; conditions: Betapolyomavirus hominis, HFF
[6] = Rat plasma pharmacokinetics after IV infusion and PO dose; conditions: rats; 10 mg/kg IV 2-h infusion and PO
[7] = test system: BK virus (BKV), Gardner strain; design: SI50 / SI90: unit not given beside the values
in vitro [8] = conditions: human; remark: listed apart in the source
in vivo = conditions: male, Sprague-Dawley, rat; for AUC(0-inf): AUCInf; for AUC(0-t): AUClast; for clearance: CL; for MRT inf: MRTInf
JC virus (JCV) [9] = test: microbe, parasite or virus in culture; conditions: JC polyomavirus, COS-7
in vitro [10] = conditions: male, SD, rat, plasma
in vitro [11] = conditions: African green monkey
in vitro [12] = conditions: rat
JC virus (JCV) [13] = test system: JC virus (JCV)
[14] = test system: SARS-CoV-2 (USA-WA1/2020); format: cell-based; conditions: compound replenished daily, SI = CC50/EC50
[15] = test system: SARS-CoV-2 (USA-WA1/2020); conditions: for SI50 (SI): SARS-CoV-2, SI = CC50/EC50
MERS-CoV (EMC) = format: cell-based; conditions: SI = CC50/EC50
[16] = test system: dengue virus-2 (DENV-2, New Guinea C); conditions: SI = CC50/EC50
[17] = test system: Tacaribe virus (TCRV, TRVL-11573); design: SI50 (SI): unit not given beside the values
[18] = test system: Influenza B/Florida/4/2006 (Yamagata)
[19] = test system: respiratory syncytial virus (RSV, A2)
[20] = test system: enterovirus-68 (EV-68, US/DY/14-18953)
[21] = test system: Epstein-Barr virus (EBV), Akata strain; design: SI50 / SI90: unit not given beside the values
[22] = test system: influenza/California/07/2009 (H1N1)pdm09
JC virus (JCV) [23] = test: Secondary JCV assay (qPCR), COS7 cells
[24] = Secondary JCV assay (qPCR), COS7 cells; conditions: African green monkey
in vitro [25] = conditions: human; remark: listed apart in the source
HCMV AD169 = test: HCMV plaque reduction assay, MRC-5 cells, strain AD169; format: cell-based, Human cytomegalovirus
HFF cells = test: Cell proliferation assay, human foreskin fibroblast (HFF) cells; format: cell-based; conditions: Homo sapiens, 72 h, cell number
[26] = MRC-5 cytotoxicity assay (MTS) and visual cytotoxicity; conditions: human
MOLT-3 cells = conditions: human, 7 d
[27] = test system: Epstein-Barr virus (EBV), Akata strain; test: microbe, parasite or virus in culture; conditions: human gammaherpesvirus 4, Akata, 72 h

## CCCCCCCCCCCCCCCCOCCCOP(=O)(O)CO[C@H](CO)Cn1ccc(N)nc1=O [BCV, Brincidofovir]
[1]
  CLhep: 9.5 mL/min/kg
  Eh: 31%
In vitro [2]
  half-life at 0.75 μM: > 9.3 h
[3]
  CLhep: 11.5 mL/min/kg
  Eh: 16%
In vitro [4]
  CC50: > 10 µM
[5]
  EC50: 0.06 µM
  EC90: 0.39 µM
[6]
  tolerability / adverse events (AE): well-tolerated
[7]
  activity against BK virus (in words): high or moderate activity
In vitro [8]; s9, T1/2
  half-life at 1 μM: 4.1 h
In vivo; iv, 10 mg/kg
  concentration at 0.5 h: 3400 nM
  concentration at 1 h: 3200 nM
  concentration at 2 h: 3660 nM
  concentration at 4 h: 45 nM
  concentration at 8 h: 9 nM
  concentration at 24 h: 6 nM
  AUC(0-inf): 9.01 µM·h
  AUC(0-t): 8.98 µM·h
  clearance: 33.3 mL/min/kg
  Cmax: 3760 nM
  MRT inf: 1.9 h
In vivo; iv, 10 mg/kg, Vss
  Vd: 3.7 L/kg
In vivo; iv, 10 mg/kg, t1/2
  half-life: 0.8 h
In vivo; iv, t1/2 in plasma
  half-life: < 1 h
In vivo; po, 10 mg/kg
  bioavailability: 11%
  concentration at 0.5 h: 21 nM
  concentration at 1 h: 25 nM
  concentration at 2 h: 42 nM
  concentration at 4 h: 39 nM
  concentration at 8 h: 11 nM
  AUC(0-inf): 1.2 µM·h
  AUC(0-t): 1.17 µM·h
  Cmax: 141 nM
  MRT inf: 6.9 h
  Tmax: 4 h
In vivo; po, 10 mg/kg, t1/2
  half-life: 4.2 h
JC virus (JCV) [9]
  EC50: 0.74 µM
  EC90: 1.85 µM
In vitro [10]
  half-life at 0.75 μM: > 9.3 h
In vitro [11]
  CC50: 9.25 µM
In vitro [12]; s9, T1/2
  half-life at 1 μM: 7.68 h
JC virus (JCV) [13]
  activity against JC virus (in words): high or moderate activity

## CC(C)CC(NC(=O)OCc1ccccc1)C(=O)NC(CCC(=O)N(C)C)C(=O)CF (stereo not drawn) [M128533, Z-Leu-Gln(NMe2)-FMK, reference compound] (Cbz-Leu-Glu(NMe2)-CH2F; configuration not given here)
[14]
  SI50: >260
SARS-CoV; SARS-CoV, SI = CC50/EC50
  SI: >1300
SARS-CoV; SARS-CoV, Vero 76 cells, positive control
  EQ50: 0.075 µg/mL
SARS-CoV; Vero 76 cells without virus, positive control
  CC50: >100 µg/mL
[15]
  CC50: > 100 µg/mL
  SI50 (SI): >1100
SARS-CoV-2
  CC50: >100 µg/mL
  EQ50: 0.33 µg/mL
SARS-CoV-2; SARS-CoV-2, SI = CC50/EC50
  SI: >300
MERS-CoV (EMC)
  SI50 (SI): >13

## CC(C)(C)C(=O)SCCOP(=O)(OCCSC(=O)C(C)(C)C)OCC1=CC(O)C(n2ccc(=O)[nH]c2=O)O1 (stereo not shown) [SATE-ddhU]
[14]
  SI50: >6.7
[16]
  SI50 (SI): 0
[17]
  CC50: 170 µM
  SI50 (SI): 0
[18]
  CC50: 560 µM
[18]; Influenza B, SI = CC50/EC50
  SI50 (SI): 0
[19]
  CC50: 180 µM
[19]; RSV, SI = CC50/EC50
  SI50 (SI): 0
[20]
  CC50: > 100 µM
[20]; EV-68, SI = CC50/EC50
  SI50 (SI): 0
[15]
  CC50: 76 µM
  SI50 (SI): 3.5
[7]
  Activity: LO (key: NA (Not Active) SI50 = 0-3.9; LO (Slightly Active) SI50 = 4-9.9; MOD (Moderately Active) SI50 = 10-19.9; HI (Highly Active) SI50 = ≥20)
  CC50: > 150 µM
  EC50: 21.3 µM
  EC90: > 150 µM
  SI50: >7
  SI90: 1
MERS-CoV (EMC)
  SI50 (SI): 0
[21]
  Activity: NA (key: NA (Not Active) SI50 = 0-3.9; MOD (Moderately Active) SI50 = 4-9.9; HI (Highly Active) SI50 = ≥10)
  CC50: 109 µM
  EC50: > 30 µM
  EC90: > 30 µM
  SI50: <4
  SI90: <4
[22]
  CC50: 560 µM
[22]; Influenza(H1N1), SI = CC50/EC50
  SI50 (SI): 0

## CCCCCCCCCCCCCCCCOCCCOP(=O)(O)OCC1=C[C@H](O)[C@H](n2cnc3c(=O)[nH]c(N)nc32)O1 [AB23040]
[1]
  CLhep: 10.6 mL/min/kg
  Eh: 24%
[1]; 15 min
  Peak area ratio, parent: 1.33E−01
[1]; 60 min
  Peak area ratio, parent: 1.05E−01
[1]; s9
  hydrolytic stability in hepatic S9 (in words): least stable
[1]; s9, 1 μM
  T1/2: 3.32 h
In vitro [2]
  half-life at 0.75 µM: > 9.32 h
  half-life at 0.75 μM: > 9.3 h
[3]
  CLhep: 18.7 mL/min/kg
  Eh: 21%
[3]; 15 min
  Peak area ratio, parent: 1.16E−01
[3]; 60 min
  Peak area ratio, parent: 1.11E−01
[3]; s9
  hydrolytic stability in hepatic S9 (in words): least stable
[3]; s9, 1 μM
  T1/2: 3.95 h
In vitro [4]
  CC50: 25.1 µM
JC virus (JCV) [23]; JC polyomavirus, COS-7, 168 h
  EC50: 0.37 µM
  EC90: 18.6 µM
JC virus (JCV) [23]; secondary JCV assay, COS7 cells, class by SI50
  Activity: HI (HI (Highly Active) SI50 = ≥20)
JC virus (JCV) [23]; secondary testing, COS7 cells
  antiviral activity against JCV (in words): high
[24]
  CC50 at 7 days: 31.3 µM
[5]
  EC50: 4.97 µM
  EC90: > 6 µM
[6]
  tolerability / adverse events (AE): well-tolerated
[7]
  Activity: LO (key: NA (Not Active) SI50 = 0-3.9; LO (Slightly Active) SI50 = 4-9.9; MOD (Moderately Active) SI50 = 10-19.9; HI (Highly Active) SI50 = ≥20)
  activity against BK virus (in words): Low activity
In vitro [25]
  CC50 at 7 d: 112 µM
In vitro [8]; s9
  microsomal CLint at 1 μM: 7 µL/min/mg
In vitro [8]; s9, T1/2
  half-life at 1 µM: 4.69 h
  half-life at 1 μM: 3.31 h
HCMV AD169; Human betaherpesvirus 5, 144 h, hCMV AD169, MRC5 cells, plaque assay, 6-days duration
  EC50: 22.1 µM
HCMV AD169; MRC5 cells, AD169 strain
  antiviral activity against hCMV (in words): impressive antiviral activity
HCMV AD169; hCMV AD169, MRC5 cells
  Selectivity Index (CC50/EC50): >4.52
In vivo; iv, 10 mg/kg
  concentration at 0.5 h: 2670 nM
  concentration at 1 h: 3260 nM
  concentration at 2 h: 4070 nM
  concentration at 4 h: 133 nM
  concentration at 8 h: 13 nM
  concentration at 24 h: 5 nM
  concentration at 72 h: 4 nM
  AUC(0-inf): 9.13 µM·h
  AUC(0-t): 9.12 µM·h
  clearance: 28.3 mL/min/kg
  Cmax: 3650 nM
  Tmax: 2 h
In vivo; iv, 10 mg/kg, Terminal t1/2
  half-life: 37 h
In vivo; iv, 10 mg/kg, t1/2
  half-life: 0.8 h
In vivo; iv, t1/2 in plasma
  half-life: < 1 h
In vivo; po, 10 mg/kg
  bioavailability: 4%
  concentration at 0.5 h: 38 nM
  concentration at 1 h: 58 nM
  concentration at 2 h: 77 nM
  concentration at 4 h: 30.4 nM
  concentration at 8 h: 24 nM
  AUC(0-inf): 0.503 µM·h
  AUC(0-t): 0.387 µM·h
  MRT inf: 5.2 h
  Tmax: 2 h
HFF cells
  IC50: 65.9 µM
JC virus (JCV) [9]
  EC50: 8.85 µM
  EC90: 28 µM
In vitro [10]
  half-life at 0.75 µM: > 9.32 h
  half-life at 0.75 μM: > 9.3 h
In vitro [11]
  CC50: 80.7 µM
[26]
  CC50 at 6 days: > 100 µM
In vitro [12]; s9
  microsomal CLint at 1 μM: 5.8 µL/min/mg
In vitro [12]; s9, T1/2
  half-life at 1 µM: 5.72 h
  half-life at 1 μM: 3.95 h
JC virus (JCV) [13]
  Activity: LO (key: NA (Not Active) SI50 = 0-3.9; LO (Slightly Active) SI50 = 4-9.9; MOD (Moderately Active) SI50 = 10-19.9; HI (Highly Active) SI50 = ≥20)
  activity against JC virus (in words): Low activity

## Nc1ccn(C[C@@H](CO)OCP(=O)(O)O)c(=O)n1 [CDV, Cidofovir, reference compound]
MOLT-3 cells
  CC50: 97 µM
[5]
  EC50: 4.62 µM
  EC90: 106 µM
[5]; 168 h
  EC50: 4.3 µM
  EC90: 24.1 µM
[7]
  SI50: >35
In vitro [25]
  CC50 at 7 d: 101 µM
[27]
  EC50: 9.23 µM
  EC90: 29.9 µM
JC virus (JCV) [9]
  EC50: 5.66 µM
  EC90: 107 µM
[21]
  SI50: >11
  SI90: >3
In vitro [11]
  CC50: > 150 µM

— US12466849B2, “Anti-viral and anti-tumoral compounds” (YEDA RESEARCH AND DEVELOPMENT CO. LTD, priority 2020, dated 2025)
